Measured values taken from patent US10975287B2, “Heterocyclic amides useful as protein modulators” (GlaxoSmithKline Intellectual Property Development Limited, priority 2017, dated 2021).
Read-outs that look alike come from different tables or passages of the source.

Columns and labels:
[1] = tested on: C-terminal Domain (CTD) of human STING; conditions: 500 pM STING, 100 nM Alexa488 probe, 15 min at room temperature
Full-length human STING = tested on: T1, Full-length human STING; assay type: cell-based
T1 construct: Full-length human STING (Gene ID 340061); expressed in transfected cells; host or cells: HEK293T
Experimental: Functional Assay III (HEX WT agonist assay): Activation of STING in cells may be determined using a luciferase reporter assay in human embryonic kidney cells (HEK293T) co-transfected with plasmids expressing STING and the enzyme firefly luciferase driven by the interferon stimulated response element promoter (pISRE-Luc) (Agilent Technologies). […] Transfections were prepared using a cell suspension with Fugene® 6 following the manufacturer's instructions (3:1 Fugene®:DNA). […] of the transfection suspension was dispensed into wells of a 384-well plate containing 250 nL of a compound of Formula (I). […] Control wells expected to generate maximal activation of STING were cotransfected with a cGAS expression plasmid. Plates were sealed and incubated for 24 hours at 37° C. The expression of firefly luciferase was processed using Steady-Glo® luciferase assay system (Promega) and was analyzed using a standard laboratory luminescence plate reader. Data was normalized to luminescence response in the presence of cGAS, was plotted as a function of compound concentration, and fit using a standard model of receptor activation to derive the pEC50.

[2] = HEK293T co-transfected with STING and pISRE-Luc, 24 hours at 37° C., normalized to cGAS response

SMILES | FRET assay (pIC50) [1] | HEK assay (pEC50) (Full-length human STING; [2]) | HEK assay (pEC50) (Full-length human STING)
CCn1nc(C)cc1C(=O)Nc1nc2cc(C(N)=O)cc(OC)c2n1CCCc1cccnc1 [Example 50, 2-(1-ethyl-3-methyl-1H-pyrazole-5-carboxamido)-7-methoxy-1-(3-(pyridin-3-yl)propyl)-1H-benzoylimidazole-5-carboxamide] | 5.3 | – | –
CCn1nc(C)cc1C(=O)Nc1nc2cc(C(N)=O)ccc2n1C [Example 1, 2-(1-ethyl-3-methyl-1H-pyrazole-5-carboxamido)-1-methyl-1H-benzo[d]imidazole-5-carboxamide] | 4.4 | 4.4 | –
C=CCn1c(NC(=O)c2cc(C)nn2CC)nc2cc(C(N)=O)cc(OCCCO)c21 [Example 4, 1-Allyl-2-(1-ethyl-3-methyl-1H-pyrazole-5-carboxamido)-7-(3-hydroxypropoxy)-1H-benzoylimidazole-5-carboxamide] | 4.9 | 4.5 | –
CCCn1c(NC(=O)c2cc(C)nn2CC)nc2c(OC)c(C(N)=O)ccc21 [Example 30, 2-(1-ethyl-3-methyl-1H-pyrazole-5-carboxamido)-4-methoxy-1-propyl-1H-benzo[d]imidazole-5-carboxamide] | 5.0 | – | –
CCCn1c(NC(=O)c2cc(C)nn2CC)nc2cc(C(N)=O)cc(OC)c21 [Example 3, 2-(1-ethyl-3-methyl-1H-pyrazole-5-carboxamido)-7-methoxy-1-propyl-1H-benzo[d]imidazole-5-carboxamide] | 5.5 | 6 | –
CCCn1c(NC(=O)c2cc(C)nn2CC)nc2cc(C(N)=O)cc(OCCCO)c21 [Example 13, 2-(1-ethyl-3-methyl-1H-pyrazole-5-carboxamido)-7-(3-hydroxypropoxy)-1-propyl-1H-benzo-[d]imidazole-5-carboxamide] | – | 5.4 | –
C=CCn1c(NC(=O)c2cc(C)nn2CC)nc2cc(C(N)=O)cc(OC)c21 [Example 14, 1-allyl-2-(1-ethyl-3-methyl-1H-pyrazole-5-carboxamido)-7-methoxy-1H-benzo[d]imidazole-5-carboxamide] | <3.9 | 5.6 | –
CCCCn1c(NC(=O)c2cc(C)nn2CC)nc2cc(C(N)=O)cc(OC)c21 [Example 24, 1-butyl-2-(1-ethyl-3-methyl-1H-pyrazole-5-carboxamido)-7-methoxy-1H-benzo[d]imidazole-5-carboxamide] | – | 6.0 | –
CCn1nc(C)cc1C(=O)Nc1nc2cc(C(N)=O)cc(OC)c2n1CCCCNC(=O)OC(C)(C)C [Example 17, tert-butyl (4-(5-carbamoyl-2-(1-ethyl-3-methyl-1H-pyrazole-5-carboxamido)-7-methoxy-1H-benzo[d]imidazol-1-yl)butyl)carbamate] | – | 6.1 | –
C=CCn1c(NC(=O)c2cc(C)nn2CC)nc2cc(C(N)=O)ccc21 [Example 2, 1-allyl-2-(1-ethyl-3-methyl-1H-pyrazole-5-carboxamido)-1H-benzo[d]imidazole-5-carboxamide] | 4.6 | 4.5 | –
CCn1nc(C)cc1C(=O)Nc1nc2cc(C(N)=O)cc(OC)c2n1CCC(C)C [Example 27, (1-ethyl-3-methyl-1H-pyrazole-5-carboxamido)-1-isopentyl-7-methoxy-1H-benzo[d]imidazole-5-carboxamide] | – | 5.5 | –
CCCn1c(NC(=O)c2cc(C)nn2CC)nc2cc(C(N)=O)cc(CN3CCOCC3)c21 [Example 41, 2-(1-ethyl-3-methyl-1H-pyrazole-5-carboxamido)-7-(morpholinomethyl)-1-propyl-1H-benzoylimidazole-5-carboxamide] | 5.4 | – | –
CCn1nc(C)cc1C(=O)Nc1nc2cc(C(N)=O)cc(OC(C)C)c2n1CCCN1CCOCC1 [Example 37, 2-(1-ethyl-3-methyl-1H-pyrazole-5-carboxamido)-7-isopropoxy-1-(3-morpholinopropyl)-1H-benzo[d]imidazole-5-carboxamide] | 5.5 | – | –
CCn1nc(C)cc1C(=O)Nc1nc2cc(C(N)=O)cc(OC)c2n1CCCNC(=O)OCc1ccccc1 [Example 53, benzyl (3-(5-carbamoyl-2-(1-ethyl-3-methyl-1H-pyrazole-5-carboxamido)-7-methoxy-1H-benzo[d]imidazol-1-yl)propyl)carbamate] | – | – | 6.2
CCCn1c(NC(=O)c2cc(CC)nn2CC)nc2cc(C(N)=O)cc(OC)c21 [Example 57, 2-(1,3-diethyl-1H-pyrazole-5-carboxamido)-7-methoxy-1-propyl-1H-benzo[d]imidazole-5-carboxamide] | – | 5.5 | –
CCn1nc(C)cc1C(=O)Nc1nc2cc(C(N)=O)cc(OC)c2n1CCCN1CCOCC1 [Example 9, 2-(1-ethyl-3-methyl-1H-pyrazole-5-carboxamido)-7-methoxy-1-(3-morpholinopropyl)-1H-benzo[d]imidazole-5-carboxamide] | 5.1 | 5.1 | –
